Where a name gives a salt, the structure may show the parent alone.
Assays:
Bile salt export pump [1] = biological target: T1, Bile salt export pump (Homo sapiens, UniProt O95342); test: (§1) Inhibition of human BSEP expressed in fall armyworm sf9 cell plasma membrane vesicles assessed as reduction in vesicle-associated [3H]-taurocholate transport preincubated for 10 mins prior to ATP addition measured after 15 mins in presence of [3H]-taurocholate by topcount based membrane vesicle transport assay; format: ADME
Bile salt export pump [2] = biological target: T1, Bile salt export pump; test: Inhibition of human BSEP expressed in fall armyworm sf9 cell membrane vesicles assessed as reduction in ATP-dependent [3H]-taurocholic acid uptake preincubated for 30 mins prior to [3H]-taurocholic acid addition by liquid scintillation counting; format: ADME
Bile salt export pump [3] = biological target: T1, Bile salt export pump; test: Inhibition of human BSEP expressed in fall armyworm sf9 cell membrane vesicles assessed as reduction in ATP-dependent [3H]-taurocholic acid uptake at 100 uM preincubated for 30 mins prior to [3H]-taurocholic acid addition by liquid scintillation counting relative to control; format: ADME
Bile salt export pump [4] = biological target: T1, Bile salt export pump; test: as §1, with “cell” for “cell plasma”, “[3H]-taurocholate at 133 uM” for “[3H]-taurocholate transport”, “assay relative to control” for “assay”; format: ADME
Bile salt export pump [5] = biological target: T1, Bile salt export pump; test: Inhibition of BSEP in human hepatocytes assessed as reduction in biliary excretion of [3H]-taurocholate in cell lysates after 15 mins by liquid scintillation counting; format: ADME, cell-based, Lysate
Bile salt export pump [6] = biological target: T1, Bile salt export pump; test: Inhibition of BSEP in human hepatocytes assessed as reduction in biliary excretion of [3H]-taurocholate in cell lysates at 10 to 100 uM after 15 mins by liquid scintillation counting relative to control; format: ADME, cell-based, Lysate

Compound | IC50 (Bile salt export pump [1]) | further results
CC(C)C(=O)Nc1ccc([N+](=O)[O-])c(C(F)(F)F)c1 [FLUTAMIDE] | > 135 µM | IC50 (Bile salt export pump [2]): 50 µM; Imax (Bile salt export pump [3]): 40 to 50%; Imax (Bile salt export pump [4]): 50%; IC50 (Bile salt export pump [5]): 75 µM; Imax (Bile salt export pump [6]): 20%
C[C@H]1C[C@@H]2[C@H]([C@@H](O)C[C@@]3(C)[C@H]2CC[C@]3(O)C(=O)CO)[C@@]2(C)C=CC(=O)C=C12 [METHYLPREDNISOLONE] | > 135 µM | 
CCN(CC)CCNC(=O)c1cc(Cl)c(N)cc1OC [METOCLOPRAMIDE] | > 135 µM | 
COc1ccc2cc1Oc1cc3c(cc1OC)CC[N+](C)(C)[C@H]3Cc1ccc(cc1)Oc1c(OC)c(OC)cc3c1[C@@H](C2)[N+](C)(C)CC3 [METOCURINE] | > 135 µM | 
COCC(=O)O[C@]1(CCN(C)CCCc2nc3ccccc3[nH]2)CCc2cc(F)ccc2[C@@H]1C(C)C [MIBEFRADIL] | 25 to 45 µM | 
Cc1ncc2n1-c1ccc(Cl)cc1C(c1ccccc1F)=NC2 [MIDAZOLAM] | 41.7 µM | 
CN(C)C(=O)CCSC(SCCC(=O)O)c1cccc(/C=C/c2ccc3ccc(Cl)cc3n2)c1 (stereo not given) [MK-571] | 3.5 µM | 
O=C(NCCN1CCOCC1)c1ccc(Cl)cc1 [MOCLOBEMIDE] | > 135 µM | 
CN1CC[C@]23c4c5ccc(O)c4O[C@H]2[C@@H](O)C=C[C@H]3[C@H]1C5 [MORPHINE] | > 135 µM | 
CC(C)(C)NCC(O)COc1cccc2c1CC(O)C(O)C2 (stereo not given) [NADOLOL] | > 135 µM | 
C=CCN1CC[C@]23c4c5ccc(O)c4O[C@H]2C(=O)CC[C@@]3(O)[C@H]1C5 [NALOXONE] | > 135 µM | 
COc1ccc2cc([C@H](C)C(=O)O)ccc2c1 [NAPROXEN] | > 135 µM | 
CCc1nn(CCCN2CCN(c3cccc(Cl)c3)CC2)c(=O)n1CCOc1ccccc1 [NEFAZODONE] | 6.1 µM | 
CN1CCOC(c2ccccc2)c2ccccc2C1 (stereo not given) [NEFOPAM] | > 135 µM | 
CN(C)C(=O)Oc1cccc([N+](C)(C)C)c1 [NEOSTIGMINE] | > 135 µM | 
Cc1ccnc2c1NC(=O)c1cccnc1N2C1CC1 [NEVIRAPINE] | > 135 µM | 
COC(=O)C1=C(C)NC(C)=C(C(=O)OCCN(C)Cc2ccccc2)C1c1cccc([N+](=O)[O-])c1 (stereo not given) [NICARDIPINE] | 7.9 µM | 
CN1CCC[C@H]1c1cccnc1 [NICOTINE] | > 135 µM | 
O=C1CN=C(c2ccccc2)c2cc([N+](=O)[O-])ccc2N1 [NITRAZEPAM] | > 135 µM | 
CCOC(=O)C1=C(C)NC(C)=C(C(=O)OC)C1c1cccc([N+](=O)[O-])c1 (stereo not given) [NITRENDIPINE] | 25 to 45 µM | 
CNCCC=C1c2ccccc2CCc2ccccc21 [NORTRIPTYLINE] | > 135 µM | 
COc1ccc2[nH]c([S+]([O-])Cc3ncc(C)c(OC)c3C)nc2c1 (stereo not given) [OMEPRAZOLE] | 75 to 105 µM | 
Cc1nccn1CC1CCc2c(c3ccccc3n2C)C1=O (stereo not given) [ONDANSETRON] | > 135 µM | 
COc1ccc(Cc2nccc3cc(OC)c(OC)cc23)cc1OC [PAPAVERINE] | > 135 µM | 
CCn1cc(C(=O)O)c(=O)c2cc(F)c(N3CCN(C)CC3)cc21 [PEFLOXACIN] | > 135 µM | 

Compound | IC50 (Bile salt export pump [1]) | further results
N=C(N)c1ccc(OCCCCCOc2ccc(C(=N)N)cc2)cc1 [PENTAMIDINE] | > 135 µM | 
CC(=O)CCCCn1c(=O)c2c(ncn2C)n(C)c1=O [PENTOXIFYLLINE] | > 135 µM | 
OCCN1CCN(CCCN2c3ccccc3Sc3ccc(Cl)cc32)CC1 [PERPHENAZINE] | > 135 µM | 
CCOc1ccc(NC(C)=O)cc1 [PHENACETIN] | > 135 µM | 
[H]/N=C(/N)N/C(=N/[H])NCCc1ccccc1 [PHENFORMIN] | > 135 µM | 
CCC1(c2ccccc2)C(=O)NC(=O)NC1=O [PHENOBARBITAL] | > 135 µM | 
CCc1ccc(CCOc2ccc(CC3SC(=O)NC3=O)cc2)nc1 (stereo not given) [PIOGLITAZONE] | 0.4 µM | 
Cc1cccc(Nc2cc(Cl)nc(SCC(=O)O)n2)c1C [PIRINIXIC ACID] | 75 to 105 µM | 
COc1cc2nc(N3CCN(C(=O)c4ccco4)CC3)nc(N)c2cc1OC [PRAZOSIN] | > 135 µM | 
COc1cc(NC(C)CCCN)c2ncccc2c1 (stereo not given) [PRIMAQUINE] | 32.7 µM | 
CC(CN1c2ccccc2Sc2ccccc21)N(C)C (stereo not given) [PROMETHAZINE] | > 135 µM | 
O=c1c(O)c(-c2ccc(O)c(O)c2)oc2cc(O)cc(O)c12 [QUERCETIN] | > 135 µM | 
C=C[C@H]1C[N@@]2CC[C@H]1C[C@@H]2[C@@H](O)c1ccnc2ccc(OC)cc12 [QUINIDINE] | > 135 µM | 
C=C[C@H]1C[N@@]2CC[C@H]1C[C@H]2[C@H](O)c1ccnc2ccc(OC)cc12 [QUININE] | > 135 µM | 
CCN1CCC[C@H]1CNC(=O)c1c(OC)ccc(Br)c1OC [REMOXIPRIDE] | > 135 µM | 
COC(=O)[C@H]1[C@H]2C[C@@H]3c4[nH]c5cc(OC)ccc5c4CCN3C[C@H]2C[C@@H](OC(=O)c2cc(OC)c(OC)c(OC)c2)[C@@H]1OC [RESERPINE] | 8.4 µM | 
CO[C@H]1/C=C/O[C@@]2(C)Oc3c(C)c(O)c4c(c3C2=O)C2=NC3(CCN(CC(C)C)CC3)NC2=C(NC(=O)/C(C)=C\C=C\[C@H](C)[C@H](O)[C@@H](C)[C@@H](O)[C@@H](C)[C@H](OC(C)=O)[C@@H]1C)C4=O [RIFABUTIN] | 26.7 µM | 
CO[C@H]1/C=C/O[C@@]2(C)Oc3c(C)c(O)c4c(O)c(c(/C=N/N5CCN(C)CC5)c(O)c4c3C2=O)NC(=O)/C(C)=C\C=C\[C@H](C)[C@H](O)[C@@H](C)[C@@H](O)[C@@H](C)[C@H](OC(C)=O)[C@@H]1C [RIFAMPIN] | 25.3 µM | 
CS(=O)(=O)c1ccc(C2=C(c3ccccc3)C(=O)OC2)cc1 [ROFECOXIB] | > 135 µM | 
CN(CCOc1ccc(CC2SC(=O)NC2=O)cc1)c1ccccn1 (stereo not given) [ROSIGLITAZONE] | 4.4 µM | 
C#CCN(C)[C@H](C)Cc1ccccc1 [SELEGILINE HYDROCHLORIDE] | > 135 µM | 
N[C@@H](CC(=O)N1CCn2c(nnc2C(F)(F)F)C1)Cc1cc(F)c(F)cc1F [SITAGLIPTIN] | > 135 µM | 
CNC(=O)c1cc(Oc2ccc(NC(=O)Nc3ccc(Cl)c(C(F)(F)F)c3)cc2)ccn1 [SORAFENIB] | 8 µM | 
CC(C)NCC(O)c1ccc(NS(C)(=O)=O)cc1 (stereo not given) [SOTALOL] | > 135 µM | 
CN[C@@H]1C[C@H]2O[C@@](C)([C@@H]1OC)n1c3ccccc3c3c4c(c5c6ccccc6n2c5c31)C(=O)NC4 [STAUROSPORINE] | 18.7 µM | 

Compound | IC50 (Bile salt export pump [1]) | further results
Nc1ccc(S(=O)(=O)Nc2ncccn2)cc1 [SULFADIAZINE] | > 135 µM | 
Cc1cc(NS(=O)(=O)c2ccc(N)cc2)no1 [SULFAMETHOXAZOLE] | > 135 µM | 
Cc1noc(NS(=O)(=O)c2ccc(N)cc2)c1C [SULFISOXAZOLE] | > 135 µM | 
Cc1ccc(C(=O)Nc2ccc(S(=O)(=O)O)c3cc(S(=O)(=O)O)cc(S(=O)(=O)O)c23)cc1NC(=O)c1cccc(NC(=O)Nc2cccc(C(=O)Nc3cc(C(=O)Nc4ccc(S(=O)(=O)O)c5cc(S(=O)(=O)O)cc(S(=O)(=O)O)c45)ccc3C)c2)c1 [SURAMIN] | > 135 µM | 
Nc1c2c(nc3ccccc13)CCCC2 [TACRINE] | > 135 µM | 
CC[C@H]1OC(=O)[C@H](C)C(=O)[C@H](C)[C@@H](O[C@@H]2O[C@H](C)C[C@H](N(C)C)[C@H]2O)[C@](C)(OC)C[C@@H](C)C(=O)[C@H](C)[C@H]2N(CCCCn3cnc(-c4cccnc4)c3)C(=O)O[C@]12C [TELITHROMYCIN] | 4 µM | 
CN1C(C(=O)Nc2ccccn2)=C(O)c2sccc2S1(=O)=O [TENOXICAM] | > 135 µM | 
CC(C)(C)NCC(O)c1cc(O)cc(O)c1 (stereo not given) [TERBUTALINE] | > 135 µM | 
Cn1c(=O)c2[nH]cnc2n(C)c1=O [THEOPHYLLINE] | > 135 µM | 
S=P(N1CC1)(N1CC1)N1CC1 [THIOTEPA] | > 135 µM | 
CCN(CC)CCOc1ccc2c(c1)C(=O)c1cc(OCCN(CC)CC)ccc1-2 [TILORONE] | > 135 µM | 
CC(C)(C)NC[C@H](O)COc1nsnc1N1CCOCC1 [TIMOLOL] | > 135 µM | 
Clc1ccc2nsnc2c1NC1=NCCN1 [TIZANIDINE] | > 135 µM | 
CCCCNC(=O)NS(=O)(=O)c1ccc(C)cc1 [TOLBUTAMIDE] | > 135 µM | 
Cc1ccc(C(=O)c2cc(O)c(O)c([N+](=O)[O-])c2)cc1 [TOLCAPONE] | 34.5 µM | 
O=c1n(CCCN2CCN(c3cccc(Cl)c3)CC2)nc2ccccn12 [TRAZODONE] | > 135 µM | 
COc1cc(Cc2cnc(N)nc2N)cc(OC)c1OC [TRIMETHOPRIM] | > 135 µM | 
Cc1c(C)c2c(c(C)c1O)CCC(C)(COc1ccc(CC3SC(=O)NC3=O)cc1)O2 (stereo not given) [TROGLITAZONE] | 5.9 µM | 
COc1cc2c3cc1Oc1cc(ccc1O)C[C@@H]1c4c(cc(OC)c(O)c4Oc4ccc(cc4)C[C@@H]3N(C)CC2)CC[N+]1(C)C [TUBOCURARINE] | > 135 µM | 
CC(C)[C@@H]1NC(=O)[C@H](C)OC(=O)[C@@H](C(C)C)NC(=O)[C@@H](C(C)C)OC(=O)[C@H](C(C)C)NC(=O)[C@H](C)OC(=O)[C@@H](C(C)C)NC(=O)[C@@H](C(C)C)OC(=O)[C@H](C(C)C)NC(=O)[C@H](C)OC(=O)[C@@H](C(C)C)NC(=O)[C@@H](C(C)C)OC1=O [VALINOMYCIN] | 1.6 µM | 
COc1ccc(C(CN(C)C)C2(O)CCCCC2)cc1 (stereo not given) [VENLAFAXINE] | > 135 µM | 
CC[C@]1(O)C[C@@H]2CN(CCc3c([nH]c4ccccc34)[C@@](C(=O)OC)(c3cc4c(cc3OC)N(C)[C@H]3[C@@](O)(C(=O)OC)[C@H](OC(C)=O)[C@]5(CC)C=CCN6CC[C@]43[C@@H]65)C2)C1 [VINBLASTINE] | > 135 µM | 
COC[C@H]1OC(=O)c2coc3c2[C@@]1(C)C1=C(C3=O)[C@@H]2CCC(=O)[C@@]2(C)C[C@H]1OC(C)=O [WORTMANNIN] | 13.6 µM | 
O=P(O)(O)C(O)(Cn1ccnc1)P(=O)(O)O [ZOLEDRONIC ACID] | > 135 µM | 
NS(=O)(=O)Cc1noc2ccccc12 [ZONISAMIDE] | > 135 µM | 

Source: ChEMBL document CHEMBL4011581, “Interference with bile salt export pump function is a susceptibility factor for human liver injury in drug development” (Toxicol Sci, 2010)
